Experimental data from patent publication US11926619B2, “Certain pladienolide compounds and methods of use” (EISAI R&D MANAGEMENT CO., LTD., priority 2018, dated 2024).
Read-outs that look alike come from different tables or passages of the source.

Columns and labels:
Type in all cases: cell-based
[1] = test system: WiDr cells (colon cancer cells; wildtype SF3B1); assay: Cell viability assay (CellTiter-Glo, 72 hr), WiDr cells; details: Homo sapiens
Experimental: (§1) Cells (WiDr and Panc05.04 obtained from ATCC) were seeded in 96-well plates, with 2000 cells/100 μL/well, and incubated overnight. Spent media was removed, and fresh media containing 9 different concentrations of compound (100 μL/well) were added, with DMSO concentration from compound stock solution adjusted to be 0.1%. Each compound treatment was done in duplicate or triplicate at each concentration.
(§2) Another plate with cells seeded was dedicated as a time zero (Tz) plate, to which was added 0.1% DMSO in media (100 μL/well) followed by CellTiter-Glo® reagent (Promega Corporation, Madison, Wisconsin) (50 μL/well) for ATP measurement as a surrogate of cell viability. Average value from measurement of multiple wells of this plate is used as Tz. Compound-treated plates were incubated for 72 hr at 37° C. Then, CellTiter-Glo® reagent (50 μL/well) was added and ATP was measured. Average value from measurement of the duplicate or triplicate compound-treated wells is used as Ti, and seeded plates with medium having 0.1% DMSO without compound is used as control growth (C).
(§3) Percentage growth inhibition/Percentage viability was calculated as:
(§4) [(Ti−Tz)/(C−Tz)]×100 for concentrations for which Ti>/=Tz
(§5) [(Ti−Tz)/Tz]×100 for concentrations for which Ti<Tz.
(§6) *time zero (Tz), control growth (C), and test growth in the presence of compound (Ti) Percentage growth inhibition/Percentage viability are plotted versus compound concentration to determine Emax.
Emax refers to the maximum achievable response to a compound in a tested dose range, with a negative value indicating cellular lethality. A larger negative Emax value indicates greater cellular lethality for a particular compound. […]

[2] = test system: Panc 05.04 cells (pancreatic cancer cells; Q699H and K700E mutations in SF3B1); assay: Cell viability assay (CellTiter-Glo, 72 hr), Panc 05.04 cells; details: Panc 05.04 cells (mutant SF3B1); for Emax: maximum achievable response in tested dose range, negative value = cellular lethality, read-out: Panc 05.04 (mt SF3B1 cells) Emax (%); for GI50: read-out: Panc 05.04 (mt SF3B1 cells), GI50
Experimental: as §1, §2, §3, §4, §5, §6
(§7) Emax refers to the maximum achievable response to a compound in a tested dose range, with a negative value indicating cellular lethality. A larger negative Emax value indicates greater cellular lethality for a particular compound.

[3] = test system: WiDr-R cells (colon cancer cells; chemically-induced SF3B1 R1074H mutant); assay: Cell viability assay (CellTiter-Glo, 72 hr), resistant WiDr-R cells (counter-screen)
Experimental: as §1, §2, §3, §4, §5, §6, §7
The counter-screening of compounds in this viability assay with a “resistant” WiDr-R cell line may indicate whether these compounds have off-target effect(s).

[4] = WiDr cells (wildtype SF3B1), read-out: WiDr GI50
[5] = WiDr-R cells (SF3B1 R1074H mutation, resistant), read-out: WiDr-R GI50

Row | SMILES | GI50 [1, 4] | Emax [2] | GI50 [2] | GI50 [3, 5] | GI50 ([1]; WiDr, read-out: WiDr GI50 (nM)) | GI50 ([3]; read-out: WiDr-R GI50 (nM))
1 | COc1cccc(C(C)/C=C/C=C(\C)[C@H]2OC(=O)C[C@H](O)CC[C@@](C)(O)[C@@H](OC(C)=O)/C=C/[C@@H]2C)n1 (stereo partly shown) | 282 nM | -12.7% | 554 nM | > 10000 nM | – | –
2 | C/C(=C\C=C\[C@@H](C)c1ccccn1)[C@H]1OC(=O)CCCC[C@@](C)(O)[C@@H](OC(=O)N2CCN(C)CC2)/C=C/[C@@H]1C | 31.6 nM | -75.7% | 33.9 nM | > 1000 nM | – | –
3 | C/C(=C\C=C\[C@@H](C)COC(=O)N1CC[C@@H](O)C1)[C@H]1OC(=O)C[C@H](O)CC[C@@](C)(O)[C@@H](OC(=O)N2CCN(C)CC2)/C=C/[C@@H]1C | 89.9 nM | -94.8% | 88.1 nM | > 1000 nM | – | –
4 | CC(=O)O[C@H]1/C=C/[C@H](C)[C@@H](/C(C)=C/C=C/C(C)(O)CCc2ccccc2)OC(=O)C[C@H](O)CC[C@@]1(C)O (stereo partly shown) | 194 nM | -41.5% | 354 nM | > 10000 nM | – | –
5 | CC(=O)O[C@H]1/C=C/[C@H](C)[C@@H](/C(C)=C/C=C/C(C)(O)c2cccs2)OC(=O)C[C@H](O)CC[C@@]1(C)O (stereo partly shown) | 473 nM | 32.8% | 3790 nM | > 10000 nM | – | –
6 | C/C(=C\C=C\[C@@H](C)COC(=O)N1CC2CC2C1)[C@H]1OC(=O)C[C@H](O)CC[C@@](C)(O)[C@@H](OC(=O)N2CCN(C3CCCCCC3)CC2)/C=C/[C@@H]1C (stereo partly shown) | 8.28 nM | -84.2% | 18.6 nM | > 1000 nM | – | –
7 | C/C(=C\C=C\[C@@H](C)CN(C)C(=O)N1CCCC1)[C@H]1OC(=O)C[C@H](O)CC[C@@](C)(O)[C@@H](OC(=O)N2CCN(C3CCCCCC3)CC2)/C=C/[C@@H]1C | 145 nM | -94.5% | 23.5 nM | > 1000 nM | – | –
8 | C/C(=C\C=C\[C@@H](C)COC(=O)N1CCC[C@H]1C)[C@H]1OC(=O)CCCCC[C@@H](OC(=O)N2CCN(C)CC2)/C=C/[C@@H]1C | 3.44 nM | -65.3% | 7.73 nM | 681 nM | – | –
9 | C/C(=C\C=C\C(C)c1ccnc(N(C)C)n1)[C@H]1OC(=O)CCCCC[C@@H](OC(=O)N2CCN(C3CCCCCC3)CC2)/C=C/[C@@H]1C (stereo partly shown) | 4280 nM | 52% | > 10000 nM | > 10000 nM | – | –
10 | C/C(=C\C=C\[C@@H](C)COC(=O)N1CCC(=O)C1)[C@H]1OC(=O)C[C@H](O)CC[C@@](C)(O)[C@@H](OC(=O)N2CCN(C3CCCCCC3)CC2)/C=C/[C@@H]1C | 4.77 nM | -93.6% | 2.85 nM | 449 nM | – | –
11 | C/C(=C\C=C\C(C)c1ncccn1)[C@H]1OC(=O)CCCCC[C@@H](OC(=O)N2CCN(C)CC2)/C=C/[C@@H]1C (stereo partly shown) | 45.7 nM | -72.6% | 40.4 nM | > 1000 nM | – | –
12 | CC(=O)O[C@H]1/C=C/[C@H](C)[C@@H](/C(C)=C/C=C/[C@@H](C)COC(N)=O)OC(=O)C[C@H](O)CC[C@@]1(C)O | 8130 nM | 40.1% | 2090 nM | > 10000 nM | – | –
13 | C/C(=C\C=C\[C@@H](C)COC(=O)N1CC[C@@H](NC(=O)OC(C)(C)C)C1)[C@H]1OC(=O)C[C@H](O)CC[C@@](C)(O)[C@@H](OC(=O)N2CCN(C3CCCCCC3)CC2)/C=C/[C@@H]1C | 28 nM | -59.6% | 59.4 nM | > 1000 nM | – | –
14 | CC(=O)O[C@H]1/C=C/[C@H](C)[C@@H](/C(C)=C/C=C/[C@](C)(O)CCc2ccccc2)OC(=O)C[C@H](O)CC[C@@]1(C)O | 167 nM | -55.4% | 314 nM | > 10000 nM | – | –
15 | CCCN(C)C(=O)OC[C@H](C)/C=C/C=C(\C)[C@H]1OC(=O)C[C@H](O)CC[C@@](C)(O)[C@@H](OC(=O)N2CCN(C3CCCCCC3)CC2)/C=C/[C@@H]1C | – | -92.4% | 279 nM | – | 43.4 nM | > 1000 nM
16 | CCC(C)N(C)C(=O)OC[C@H](C)/C=C/C=C(\C)[C@H]1OC(=O)C[C@H](O)CC[C@@](C)(O)[C@@H](OC(C)=O)/C=C/[C@@H]1C (stereo partly shown) | 308 nM | – | 587 nM | > 10000 nM | – | –
17 | C/C(=C\C=C\[C@@H](C)COC(=O)N1CC[C@H](C)C1)[C@H]1OC(=O)C[C@H](O)CC[C@@](C)(O)[C@@H](OC(=O)N2CCN(C3CCCCCC3)CC2)/C=C/[C@@H]1C | 6.2 nM | -93.6% | 2.59 nM | > 1000 nM | – | –
18 | COC(=O)OC[C@H](C)/C=C/C=C(\C)[C@H]1OC(=O)C[C@H](O)CC[C@@](C)(O)[C@@H](OC(=O)N2CCN(C)CC2)/C=C/[C@@H]1C | 14.7 nM | -95.9% | 5.11 nM | > 1000 nM | – | –
19 | C/C(=C\C=C\[C@@H](C)COC(=O)N1CCC[C@H]1CF)[C@H]1OC(=O)C[C@H](O)CC[C@@](C)(O)[C@@H](OC(=O)N2CCN(C)CC2)/C=C/[C@@H]1C | 1.7 nM | -82.1% | 2.25 nM | > 1000 nM | – | –
20 | C/C(=C\C=C\[C@@H](C)COC(=O)N1CCCC1C(C)O)[C@H]1OC(=O)C[C@H](O)CC[C@@](C)(O)[C@@H](OC(=O)N2CCN(C)CC2)/C=C/[C@@H]1C (stereo partly shown) | 14.7 nM | -85.4% | 10.1 nM | > 1000 nM | – | –
21 | C/C(=C\C=C\[C@@H](C)COC(=O)N1CCCC1)[C@H]1OC(=O)CCCCC[C@@H](OC(=O)N2CCN(C3CCCCCC3)CC2)/C=C/[C@@H]1C | 74.6 nM | -93.3% | 170 nM | 929 nM | – | –
22 | C/C(=C\C=C\[C@@H](C)COC(=O)N1CC[C@@H](O)C1)[C@H]1OC(=O)CCCC[C@@](C)(O)[C@@H](OC(=O)N2CCN(C)CC2)/C=C/[C@@H]1C | 11.2 nM | -94.6% | 4.44 nM | > 1000 nM | – | –
23 | C/C(=C\C=C\[C@@H](C)COC(=O)N1CCCC1(C)C)[C@H]1OC(=O)C[C@H](O)CC[C@@](C)(O)[C@@H](OC(=O)N2CCN(C3CCCCCC3)CC2)/C=C/[C@@H]1C | 28.9 nM | -93% | 10.4 nM | > 1000 nM | – | –
24 | CC[C@H](O)[C@@H](C)C(=O)OC[C@H](C)/C=C/C=C(\C)[C@H]1OC(=O)C[C@H](O)CC[C@@](C)(O)[C@@H](OC(C)=O)/C=C/[C@@H]1C | 42.8 nM | -90.5% | 31.1 nM | > 10000 nM | – | –
25 | C/C(=C\C=C\[C@@H](C)COC(=O)N1CCC[C@H]1CF)[C@H]1OC(=O)C[C@H](O)CC[C@H](C)[C@@H](OC(=O)N2CCN(C3CCCCCC3)CC2)/C=C/[C@@H]1C | 5.05 nM | -77.7% | 6.76 nM | > 1000 nM | – | –
26 | C/C(=C\C=C\[C@@H](C)COC(=O)N1CCCC1)[C@H]1OC(=O)C[C@H](OC(=O)N2CCCC2)CC[C@@](C)(O)[C@@H](OC(=O)N2CCN(C3CCCCCC3)CC2)/C=C/[C@@H]1C | 77.3 nM | – | 80.1 nM | > 1000 nM | – | –
27 | C/C(=C\C=C\[C@@H](C)COC(=O)N1CCC2(COC2)C1)[C@H]1OC(=O)C[C@H](O)CC[C@@](C)(O)[C@@H](OC(=O)N2CCN(C3CCCCCC3)CC2)/C=C/[C@@H]1C | 6.39 nM | -76.4% | 7.98 nM | 603 nM | – | –
